US20200361871A1 (Enterprise Therapeutics Ltd., priority 2018, published 2020)
pEC50: −log10 of the molar value.

Target: human TMEM16A (TMEM16Aabc variant) (Homo sapiens, UniProt Q5XXA6, DEL476-501, form not given)
Assay: Automated whole-cell patch clamp (Qpatch) TMEM16A potentiator assay in FRT cells stably expressing human TMEM16A
Format: cell-based
Conditions: for % Potentiation @ 3.33 μM Avg: 3.33 μM solution of test compound, percentage increase of baseline TMEM16A current; for pEC50: calculated EC50, Qpatch TMEM16A current at +70 mV
Summary of the method: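 FRT cells stably expressing human TMEM16Aabc were recorded by automated whole-cell patch clamp, with intracellular Ca2+ buffered for ~EC20 activation, holding −70 mV and step to +70 mV at 0.05 Hz. Compound was applied cumulatively, 5 min per concentration. Peak current increase as % of baseline was fitted to give EC50 and maximum efficacy.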

Chain of human TMEM16A (TMEM16Aabc variant) (Q5XXA6 with tags, fused parts or gaps DEL476-501): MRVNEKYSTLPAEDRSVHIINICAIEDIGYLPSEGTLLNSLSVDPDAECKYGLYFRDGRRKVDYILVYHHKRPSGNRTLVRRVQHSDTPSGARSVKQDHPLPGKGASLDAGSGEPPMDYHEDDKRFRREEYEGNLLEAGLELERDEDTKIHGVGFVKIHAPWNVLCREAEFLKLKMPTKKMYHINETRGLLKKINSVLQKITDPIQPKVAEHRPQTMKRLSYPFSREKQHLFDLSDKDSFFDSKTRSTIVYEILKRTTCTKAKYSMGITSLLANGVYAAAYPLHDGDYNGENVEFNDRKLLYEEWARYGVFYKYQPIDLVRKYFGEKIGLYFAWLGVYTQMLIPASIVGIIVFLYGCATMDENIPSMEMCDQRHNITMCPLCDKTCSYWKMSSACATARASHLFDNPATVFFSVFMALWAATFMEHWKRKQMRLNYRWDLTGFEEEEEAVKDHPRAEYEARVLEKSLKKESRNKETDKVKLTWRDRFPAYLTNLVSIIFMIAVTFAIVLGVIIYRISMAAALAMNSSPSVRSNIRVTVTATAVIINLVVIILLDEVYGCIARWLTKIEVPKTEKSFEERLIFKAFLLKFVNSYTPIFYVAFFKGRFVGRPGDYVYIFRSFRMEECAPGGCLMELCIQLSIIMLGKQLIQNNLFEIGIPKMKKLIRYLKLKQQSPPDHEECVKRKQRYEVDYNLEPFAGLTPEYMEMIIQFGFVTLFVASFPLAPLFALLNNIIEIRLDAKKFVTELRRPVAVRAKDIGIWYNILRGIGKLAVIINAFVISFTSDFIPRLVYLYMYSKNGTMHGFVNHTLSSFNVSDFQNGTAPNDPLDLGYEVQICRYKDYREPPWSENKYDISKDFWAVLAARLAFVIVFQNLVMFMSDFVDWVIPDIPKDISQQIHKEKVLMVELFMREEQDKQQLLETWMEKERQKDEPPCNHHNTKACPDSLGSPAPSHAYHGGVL

Row | Compound | % Potentiation @ 3.33 μM Avg [%] | pEC50
1 | CC(C)(C)NC(=O)c1cc(NC(=O)Cc2cc(Cl)ccc2O)ccc1O [Example 11, N-tert-Butyl-5-[[2-(5-chloro-2-hydroxy-phenyl)acetyl]amino]-2-hydroxy-benzamide] | 76 | 6.05
2 | CCC(C)(C)NC(=O)c1cc(NC(=O)Cc2cc(Cl)ccc2O)ccn1 [Example 9.2, 4-[[2-(5-Chloro-2-hydroxy-phenyl)acetyl]amino]-N-(1,1-dimethylpropyl)pyridine-2-carboxamide] | 196 | 6.72
3 | CC(C)(CCNS(C)(=O)=O)NC(=O)c1cc(NC(=O)Cc2cc(Cl)ccc2O)ccn1 [Example 50, 4-[[2-(5-Chloro-2-hydroxy-phenyl)acetyl]amino]-N-[3-(methanesulfonamido)-1,1-dimethyl-propyl]pyridine-2-carboxamide] | 65 | –
4 | C#CC(C)(C)NC(=O)c1cc(NC(=O)CC2CCCC2)ccn1 [Example 22.2, 4-[(2-Cyclopentylacetyl)amino]-N-(1,1-dimethylprop-2-ynyl)pyridine-2-carboxamide] | 157 | 6.59
5 | CC(C)(CCO)NC(=O)c1cc(NC(=O)Cc2cc(Cl)ccc2O)ccn1 [Example 35.14, 4-[[2-(5-Chloro-2-hydroxy-phenyl)acetyl]amino]-N-(3-hydroxy-1,1-dimethyl-propyl)pyridine-2-carboxamide] | 172 | 6.57
6 | CCn1c(C(=O)Nc2ccnc(C(=O)NC(C)(C)C#N)c2)cc2ccccc21 [Example 83.18, N-[2-[(1-Cyano-1-methyl-ethyl)carbamoyl]-4-pyridyl]-1-ethyl-indole-2-carboxamide] | 16 | –
7 | CC(C)(C)NC(=O)c1cc(NC(=O)Cc2ccc(Cl)c(F)c2)ccn1 [Example 5.18, N-tert-Butyl-4-[[2-(4-chloro-3-fluoro-phenyl)acetyl]amino]pyridine-2-carboxamide] | 79 | 6.34
8 | N#CC1(NC(=O)c2cccc(NC(=O)Cc3cc(F)ccc3O)c2)CCOCC1 [Example 41, N-(4-Cyanotetrahydropyran-4-yl)-3-[[2-(5-fluoro-2-hydroxy-phenyl)acetyl]amino] benzamide] | 38 | –
9 | CC(C)(C)c1ccc(CC(=O)Nc2ccnc(C(=O)N[C@H]3CCCC[C@@H]3O)c2)cc1O [Example 93.1, 4-[2-(4-tert-butyl-3-hydroxyphenyl)acetamido]-N-[(1S,2S)-2-hydroxycyclohexyl]pyridine-2-carboxamide] | 207 | 7.30
10 | CC(C)(C)NC(=O)c1cccc(NC(=O)Cc2c(O)cccc2F)c1 [Example 2.15, N-tert-Butyl-3-[[2-(2-fluoro-6-hydroxy-phenyl)acetyl]amino]benzamide] | 163 | 6.31
11 | CC(C)(C)NC(=O)c1cc(NC(=O)Cc2ncccc2O)ccn1 [Example 19, N-tert-Butyl-4-[[2-(3-hydroxy-2-pyridyl)acetyl]amino]pyridine-2-carboxamide] | 57 | –
12 | CC(C)Cc1cc(C(=O)Nc2ccnc(C(=O)NC(C)(C)C#N)c2)on1 [Example 83.9, N-[2-[(1-Cyano-1-methyl-ethyl)carbamoyl]-4-pyridyl]-3-isobutyl-isoxazole-5-carboxamide] | 18 | –
13 | CC(C)(C)NC(=O)c1cc(NC(=O)Cc2cc(Cl)ccc2O)c(Cl)cn1 [Example 55, N-tert-Butyl-5-chloro-4-[[2-(5-chloro-2-hydroxy-phenyl)acetyl]amino]pyridine-2-carboxamide] | 114 | –
14 | CC(C)(C)NC(=O)c1cc(NC(=O)Cc2ccc(C(F)(F)F)cc2O)ccn1 [Example 3.7b, N-tert-Butyl-4-[[2-[2-hydroxy-4-(trifluoromethyl)phenyl]acetyl]amino]pyridine-2-carboxamide] | 160 | 6.74
15 | CC(C)(C)NC(=O)c1cc(NC(=O)Cc2ccco2)ccn1 [Example 5.4, N-tert-Butyl-4-[[2-(2-furyl)acetyl]amino] pyridine-2-carboxamide] | 57 | –
16 | CC(C)(C)NC(=O)c1cc(NC(=O)Cc2ccc(F)cc2)ccn1 [Example 5.13, N-tert-Butyl-4-[[2-(4-fluorophenyl)acetyl]amino]pyridine-2-carboxamide] | 94 | 5.94
17 | CC(C)(C)NC(=O)c1cc(NC(=O)Cc2cccc(Cl)c2)ccn1 [Example 5.5, N-tert-Butyl-4-[[2-(3-chlorophenyl)acetyl]amino]pyridine-2-carboxamide] | 132 | 6.14
18 | CC(C)(C)c1ccc(O)c(CC(=O)Nc2ccnc(C(=O)NC3(C#N)CCC3)c2)c1 [Example 3.5a, 4-[[2-(5-tert-Butyl-2-hydroxy-phenyl)acetyl]amino]-N-(1-cyanocyclobutyl)pyridine-2-carboxamide] | 311 | 6.30

Row | Compound | % Potentiation @ 3.33 μM Avg [%] | pEC50
19 | CC(C)(NC(=O)c1cc(NC(=O)Cc2ccccc2Cl)ccn1)C(F)F [Example 30.13, 4-[[2-(2-Chlorophenyl)acetyl]amino]-N-(2,2-difluoro-1,1-dimethyl-ethyl)pyridine-2-carboxamide] | 205 | 6.42
20 | CC(C)(C)NC(=O)c1cc(NC(=O)Cc2c(O)cccc2Cl)ccn1 [Example 3.3a, N-tert-Butyl-4-[[2-(2-chloro-6-hydroxy-phenyl)acetyl]amino]pyridine-2-carboxamide] | 91 | 7.15
21 | CC(C)(C)NC(=O)c1cc(NC(=O)C2CCCCc3ccccc32)ccn1 (stereo not drawn) [Example 5.26, N-tert-Butyl-4-(6,7,8,9-tetrahydro-5H-benzo[7]annulene-5-carbonylamino) pyridine-2-carboxamide] | 110 | 5.92
22 | N#CC1(NC(=O)c2cc(NC(=O)Cc3ccccc3Cl)ccn2)CCC1 [Example 30, 4-[[2-(2-Chlorophenyl)acetyl]amino]-N-(1-cyanocyclobutyl)pyridine-2-carboxamide] | 113 | 5.91
23 | CC(C)(CCNC(=O)OC(C)(C)C)NC(=O)c1cc(NC(=O)Cc2cc(Cl)ccc2O)ccn1 [Example 1.8, tert-Butyl N-[3-[[4-[[2-(5-chloro-2-hydroxy-phenyl)acetyl]amino]pyridine-2-carbonyl]amino]-3-methyl-butyl]carbamate] | 300 | 6.39
24 | CC(O)c1cccc(CC(=O)Nc2ccnc(C(=O)NC(C)(C)C)c2)c1 (stereo not drawn) [Example 54, N-tert-Butyl-4-[[2-[3-(1-hydroxyethyl)phenyl]acetyl]amino]pyridine-2-carboxamide] | 62 | –
25 | Cc1noc(-c2ccccc2C(=O)Nc2ccnc(C(=O)NC(C)(C)C#N)c2)n1 [Example 83.23, N-(1-Cyano-1-methyl-ethyl)-4-[[2-(3-methyl-1,2,4-oxadiazol-5-yl)benzoyl]amino]pyridine-2-carboxamide] | -11 | –
26 | CC(C)(C#N)NC(=O)c1cc(NC(=O)C2(Cc3ccccc3)CC2)ccn1 [Example 83.11, 4-[(1-Benzylcyclopropanecarbonyl)amino]-N-(1-cyano-1-methyl-ethyl)pyridine-2-carboxamide] | 13 | –
27 | Cn1c(=O)c(C(=O)Nc2ccnc(C(=O)NC(C)(C)C#N)c2)cc2ccccc21 [Example 83.32, N-[2-[(1-Cyano-1-methyl-ethyl)carbamoyl]-4-pyridyl]-1-methyl-2-oxo-quinoline-3-carboxamide] | -16 | –
28 | CC(C)(C)NC(=O)c1cc(NC(=O)Cc2cc(C(F)(F)F)ccc2O)ccn1 [Example 3.5b, N-tert-Butyl-4-[[2-[2-hydroxy-5-(trifluoromethyl)phenyl]acetyl]amino]pyridine-2-carboxamide] | 150 | 6.70
29 | Cc1ccc(CC(=O)Nc2ccnc(C(=O)NC(C)(C)C)c2)cc1 [Example 5.11, N-tert-Butyl-4-[[2-(p-tolyl)acetyl]amino]pyridine-2-carboxamide] | 89 | 6.77
30 | COc1ccccc1CNC(=O)Nc1ccnc(C(=O)NC(C)(C)C)c1 [Example 65.1, N-tert-Butyl-4-[(2-methoxyphenyl)methylcarbamoylamino]pyridine-2-carboxamide] | 75 | 6.33
31 | C#CC(C)(C)NC(=O)c1cc(NC(=O)CN2CCOc3ccccc32)ccn1 [Example 5.39, 4-[[2-(2,3-Dihydro-1,4-benzoxazin-4-yl)acetyl]amino]-N-(1,1-dimethylprop-2-ynyl)pyridine-2-carboxamide] | 147 | –
32 | CC1(O)CCC(NC(=O)c2cc(NC(=O)Cc3cc(Cl)ccc3O)ccn2)CC1 (stereo not drawn) [Example 35.1, 4-[[2-(5-Chloro-2-hydroxy-phenyl)acetyl]amino]-N-(4-hydroxy-4-methyl-cyclohexyl) pyridine-2-carboxamide] | 51 | –
33 | O=C(Cc1cc(Cl)ccc1O)Nc1ccnc(C(=O)Nc2ccccc2)c1 [Example 35.16, 4-[[2-(5-Chloro-2-hydroxy-phenyl)acetyl]amino]-N-phenyl-pyridine-2-carboxamide] | 85 | 6.48
34 | CC(C)(C)OC(=O)N1CCCC(NC(=O)c2cccc(NC(=O)Cc3cc(Cl)ccc3O)c2)C1 (stereo not drawn) [Example 8, tert-Butyl-3-[[3-[[2-(5-chloro-2-hydroxy-phenyl)acetyl]amino]benzoyl]amino] piperidine-1-carboxylate] | 88 | 5.52
35 | CCC(C)NC(=O)c1cc(NC(=O)Cc2cc(Cl)ccc2O)ccn1 (stereo not drawn) [Example 7.13, 4-[[2-(5-Chloro-2-hydroxy-phenyl)acetyl]amino]-N-sec-butyl-pyridine-2-carboxamide] | 212 | 7.05
